Data on 28 compounds can be found in ChEMBL document CHEMBL1133222 (2000).

Assay [1] concerns the target T1, Endothelin-1 receptor (Rattus norvegicus) (UniProt P26684).
T1 sequence (whole entry): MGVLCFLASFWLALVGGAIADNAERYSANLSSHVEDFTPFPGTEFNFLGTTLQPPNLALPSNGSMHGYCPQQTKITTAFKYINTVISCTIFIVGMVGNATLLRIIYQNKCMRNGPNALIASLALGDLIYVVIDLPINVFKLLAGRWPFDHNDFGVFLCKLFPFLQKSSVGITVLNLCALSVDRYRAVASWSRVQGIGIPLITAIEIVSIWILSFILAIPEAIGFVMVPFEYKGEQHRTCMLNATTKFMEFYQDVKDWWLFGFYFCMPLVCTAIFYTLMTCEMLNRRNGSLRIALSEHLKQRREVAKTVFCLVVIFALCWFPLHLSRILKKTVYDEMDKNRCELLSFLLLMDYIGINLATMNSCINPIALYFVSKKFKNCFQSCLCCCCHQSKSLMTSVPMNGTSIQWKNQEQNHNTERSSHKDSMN
In words: Inhibition of (125 I)-endothelin 1 binding to endothelin A receptor in rat ventricle.

The target of assay [2] is T2, Endothelin receptor type B (Rattus norvegicus) (UniProt P21451).
T2 sequence (whole entry): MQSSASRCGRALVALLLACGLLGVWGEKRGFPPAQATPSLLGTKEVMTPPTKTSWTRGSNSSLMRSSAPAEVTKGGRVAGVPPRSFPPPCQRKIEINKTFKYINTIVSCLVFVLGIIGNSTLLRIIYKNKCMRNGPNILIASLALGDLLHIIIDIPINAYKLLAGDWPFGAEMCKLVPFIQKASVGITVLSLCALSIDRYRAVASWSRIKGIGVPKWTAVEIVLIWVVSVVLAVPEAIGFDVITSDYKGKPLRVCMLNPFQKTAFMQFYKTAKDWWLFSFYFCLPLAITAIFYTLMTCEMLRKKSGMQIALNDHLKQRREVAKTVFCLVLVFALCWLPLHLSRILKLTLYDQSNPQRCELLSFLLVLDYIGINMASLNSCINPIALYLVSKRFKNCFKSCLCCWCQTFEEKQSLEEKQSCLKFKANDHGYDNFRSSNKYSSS
The settings on record: Cerebellum.
Description: Inhibition of (125 I)-endothelin 1 binding to endothelin B receptor in rat cerebellum

In assay [3] the test system is Mus musculus. In words: Effective dose for ET-1 induced death in mice after peroral administration. Particulars: po. It is filed as functional.
For assay [4], the system named is Rattus norvegicus. The assay is described as follows: Effective dose in rat after intravenous administration. The class given is functional.

In general, ED50 refers to the dose at which the effect has come halfway, by size or by number of responders. A low value points to greater potency.

Regarding `COc1cc(Cc2c(C(=O)O)n(Cc3cc4c(cc3Cl)OCO4)c3ccccc3c2=O)cc(OC)c1OC`, the Binding affinity in assay [1] came to 1.9 nM; in assay [2], 789 nM.
With `O=C(O)c1c(CC2CCCCC2)c(=O)c2ccccc2n1Cc1cc2c(cc1Cl)OCO2`, the values for the Binding affinity in assay [1] and in assay [2] were 1.1 nM and 100 nM, respectively.
On to `CCc1cc2c(cc1Cn1c(C(=O)[O-])c(Cc3cccc(C(=O)[O-])c3)c(=O)c3ccccc31)OCO2.[K+].[K+]`, for which the Binding affinity in assay [1] is 0.69 nM; in assay [2], 571 nM. The ED50 in assay [3] came out at 10 mg/kg; in assay [4], 0.1 mg/kg.
For `O=C(O)c1c(Cc2ccc(Br)cc2)c(=O)c2ccccc2n1Cc1cc2c(cc1Cl)OCO2`, the Binding affinity was 5.7 nM in assay [1] and 166 nM in assay [2].
`C=Cc1ccc(Cc2c(C(=O)O)n(Cc3cc4c(cc3Cl)OCO4)c3ccccc3c2=O)cc1`: the Binding affinity in assay [1] amounted to 5.6 nM; in assay [2], 190 nM.
Consider `COc1ccc(Cc2c(C(=O)O)n(Cc3ccc4c(c3)OCO4)c3ccccc3c2=O)cc1`, for which the Binding affinity was found to be 10.7 nM in assay [1] and 606 nM in assay [2].
Turning to `CCc1cc2c(cc1Cn1c(C(=O)O)c(Cc3ccc(OC)cc3)c(=O)c3ccccc31)OCO2`, the Binding affinity in assay [1] turned out to be 1 nM; in assay [2], 69 nM.
The corresponding values for `O=C(O)C[C@H]1CC[C@H](Cc2c(C(=O)O)n(Cc3cc4c(cc3Cl)OCO4)c3ccccc3c2=O)CC1` are 3.4 nM and 6630 nM.
`O=C(O)c1c(Cc2cccc(Cl)c2Cl)c(=O)c2ccccc2n1Cc1cc2c(cc1Cl)OCO2`: the Binding affinity came to 10.9 nM in assay [1] and 570 nM in assay [2].
As to `O=C(O)c1cc(=O)c2ccccc2n1Cc1cc2c(cc1Cl)OCO2`, the Binding affinity in assay [1] was 8700 nM; in assay [2] it was 29000 nM.
On to `COc1ccc(Cc2c(C(=O)O)n(Cc3cc4c(cc3Cl)OCO4)c3ccccc3c2=O)cc1`, for which the Binding affinity in assay [1] was found to be 1.6 nM; in assay [2], 216 nM.
`COc1ccc(Cc2c(C(=O)O)n(Cc3cc(Br)c4c(c3)OCO4)c3ccccc3c2=O)cc1`: the Binding affinity in assay [1] came out at 18.9 nM.
`O=C(O)c1c(Cc2ccco2)c(=O)c2ccccc2n1Cc1cc2c(cc1Cl)OCO2`: the Binding affinity is 5.7 nM in assay [1] and 1890 nM in assay [2].
For `O=C(O)CCCCCc1c(C(=O)O)n(Cc2cc3c(cc2Cl)OCO3)c2ccccc2c1=O` the same measures were 93 nM and 9500 nM.
The corresponding values for `O=C(O)c1ccc(Cc2c(C(=O)O)n(Cc3cc4c(cc3Cl)OCO4)c3ccccc3c2=O)cc1` are 4.6 nM and 17100 nM.
As to `O=C(O)c1c(Cc2ccoc2)c(=O)c2ccccc2n1Cc1cc2c(cc1Cl)OCO2`, the Binding affinity in assay [1] was 29 nM; in assay [2], 1900 nM.
The corresponding values for `O=C(O)c1c(Cc2ccccc2)c(=O)c2ccccc2n1Cc1cc2c(cc1Cl)OCO2` are 4.1 nM and 157 nM.
The corresponding values for `COc1ccc(Cn2c(C(=O)O)c(Cc3ccc4c(c3)OCO4)c(=O)c3ccccc32)cc1` are 255 nM and 16000 nM.
The corresponding values for `O=C(O)c1cccc(Cc2c(C(=O)O)n(Cc3cc4c(cc3Cl)OCO4)c3ccccc3c2=O)c1` are 3 nM and 500 nM.
With `COC(=O)c1cccc(Cc2c(C(=O)O)n(Cc3cc4c(cc3Cl)OCO4)c3ccccc3c2=O)c1`, the results for the Binding affinity in assay [1] and in assay [2] were 8.2 nM and 747 nM, respectively.
The corresponding values for `CCCCc1cn(Cc2ccc(-c3ccccc3C(=O)O)cc2)c2ccc(Cn3ccc4ccccc43)cc2c1=O` are 7600 nM and 110000 nM.
On to `COc1ccc(Cc2c(C(=O)O)n(Cc3cc4c(cc3Br)OCO4)c3ccccc3c2=O)cc1`, for which the results for the Binding affinity in assay [1] and in assay [2] were 7.8 nM and 244 nM, respectively.
Take `O=C(O)c1c(Cc2cccnc2)c(=O)c2ccccc2n1Cc1cc2c(cc1Cl)OCO2`: the Binding affinity was found to be 20.4 nM in assay [1] and 1600 nM in assay [2].
In the case of `COc1ccc(Cc2c(C(=O)O)n(Cc3cc4c(cc3Cl)OCO4)c3ccccc3c2=O)c(OCC(=O)O)c1`, the Binding affinity in assay [1] was determined as 54.3 nM; in assay [2] it was 549 nM.
For `C=Cc1cc2c(cc1Cn1c(C(=O)O)c(Cc3ccc(OC)cc3)c(=O)c3ccccc31)OCO2` the same measures were 1.8 nM and 70 nM.
As for `CCCCc1cn(Cc2ccc(-c3ccccc3-n3cnnn3)cc2)c2ccc(CSc3ccccn3)cc2c1=O`, the Binding affinity is 11000 nM in assay [1] and 12000 nM in assay [2].
As for `CCOC(=O)C[C@H]1CC[C@H](Cc2c(C(=O)O)n(Cc3cc4c(cc3Cl)OCO4)c3ccccc3c2=O)CC1`, the figures for the Binding affinity in assay [1] and in assay [2] were 4.7 nM and 5000 nM, respectively.
For `COc1ccc(Cc2c(C(=O)O)n(Cc3cc(OC)c4c(c3)OCO4)c3ccccc3c2=O)cc1`, the figures for the Binding affinity in assay [1] and in assay [2] were 9.5 nM and 244 nM, respectively.
